From patent US10993983B2, “Cyclic peptide epitopes and small-molecule mimics for inducing autophagy” (TRUSTEES OF TUFTS COLLEGE, priority 2016, dated 2021)
Values joined by “and” are separate entries in the source; they are usually repeats but may differ in a detail not shown here. Equal values may be shown once. Marks after values point to notes of the source that are not given here.

Key:
Format in all cases: cell-based
LC3 = LC3 marker assay (LC3-I to LC3-II conversion immunoblot); set-up: key: −: activity not reported; 0: decreased vs. WT; +: similar to WT; ++: modest increase vs. WT; +++: significant increase vs. WT; details: for Activity (μM) 10, LC3 assay activity: 10 μM; for Activity (μM) 30, LC3 assay activity: 30 μM; for Activity (μM) 50, LC3 assay activity: 50 μM; for Activity (μM) 100, LC3 assay activity: 100 μM; for Activity (μM) 30, starred cell, LC3 assay activity: *Data taken at 20 instead of 30 μM
HeLa cells = test: Autophagy induction judged by p62 and LC3 immunoblots together; set-up: key to Activity compared to wild-type WT / Activity (μM) 10, single symbol / Activity (μM) 30, single symbol / Activity (μM) 50, single symbol / Activity (μM) 100, single symbol: −: activity not reported; 0: decreased vs. WT; +: similar to WT; ++: modest increase vs. WT; +++: significant increase vs. WT; details: for Activity (μM) 10, single symbol: 10 μM; for Activity (μM) 30, single symbol: 30 μM; for Activity (μM) 50, single symbol: 50 μM; for Activity (μM) 100, single symbol: 100 μM
Protocol: This 10-mer sequence was substituted with various thiol-containing amino acids at various positions, and then cross-linked with various linkers as described above (FIG. 5, a and FIG. 6).
Cells were treated with peptide in OPTI-MEM (Thermo Scientific) acidified with 0.15% (v/v) 6N HCl for 3 hour. Cells were rinsed with Dulbecco's phosphate buffered saline (PBS) and lysed in lysis buffer (20 mM HEPES, 150 mM NaCl, 1 mM EDTA, 1% Triton X-100, protease inhibitor cocktail (Roche) on ice for 1 hour. Cell lysates were centrifuged at 16,000 g for 10 min at 4° C. and analyzed by SDS-PAGE and transferred to PVDF membranes. The membranes were blocked 5% non-fat dry milk (NFDM) in PBST (PBS+0.05% Tween-20) for 1 hour, then incubated overnight at 4° C. with primary antibody in 5% NFDM in PBST. The blots were washed with PBST and incubated with HRP-conjugated secondary antibodies diluted in 5% NFDM in PBST for 1 hour at room temperature. Membranes were washed with PBST and visualized with SuperSignal West Pico Chemiluminescent Substrate (Thermo Scientific). Semi-quantitative results were obtained by noting the lowest concentration at which both p62 degradation and LC3-I to LC3-II conversion were observed.
(SEQ ID NO: 16)-Sequence. […] The N-terminus was capped with an acetyl group while the C terminus was capped with a —C(O)—NH2 group. The activity reported is a summation of results from both the p62 degradation assay and the LC3 marker assay.

p62 = p62 degradation assay (p62/actin immunoblot); set-up: key: −: activity not reported; 0: decreased vs. WT; +: similar to WT; ++: modest increase vs. WT; +++: significant increase vs. WT; details: for Activity (μM) 10, p62/actin assay activity: 10 μM; for Activity (μM) 30, p62/actin assay activity: 30 μM; for Activity (μM) 50, p62/actin assay activity: 50 μM; for Activity (μM) 100, p62/actin assay activity: 100 μM; for Activity (μM) 30, starred cell, p62/actin assay activity: *Data taken at 20 instead of 30 μM
[1] = Table 4, control inactive Tat-Beclin mutant, second symbol
[2] = Table 8, control compound T25, second symbol
[3] = Table 3, control vehicle, second symbol
[4] = Table 4, starred rows (asterisk not explained)
[5] = Table 4, control inactive Tat-Beclin mutant, first symbol
[6] = Table 8, control compound T25, first symbol
[7] = Table 3, control vehicle, first symbol
[8] = Table 5, control compound T25, second symbol
[9] = Table 6, control DMSO, second symbol
[10] = Table 5, control compound T25, first symbol
[11] = Table 6, control DMSO, first symbol

VCNATCHIWH [Compound 1]
0/0 and +++: Activity (μM) 30, LC3 assay activity (LC3; [2])
++: Activity (μM) 50, LC3 assay activity (LC3; [1])
0/0* and +: Activity (μM) 10, starred cell, LC3 assay activity (LC3; Table 8, 10 μM marked * (footnote: data taken at 20 instead of 30 μM), second symbol)
0/0: Activity (μM) 10, LC3 assay activity (LC3; Table 3, control vehicle, second symbol of cell) | Activity (μM) 10, LC3 assay activity (LC3; [1]) | Activity (μM) 20, LC3 assay activity (LC3; 20 μM, Table 3, control vehicle, second symbol) | Activity (μM) 50, LC3 assay activity (LC3; [3]) | Activity (μM) 10, p62/actin assay activity (p62; Table 3, control vehicle, first symbol of cell) | Activity (μM) 10, p62/actin assay activity (p62; [5]) | Activity (μM) 20, p62/actin assay activity (p62; 20 μM, Table 3, control vehicle, first symbol) | Activity (μM) 50, p62/actin assay activity (p62; [7])
+: Activity (μM) 30, LC3 assay activity (LC3; [1]) | Activity (μM) 100, LC3 assay activity (LC3; [3]) | Activity (μM) 100, LC3 assay activity (LC3; [2])
+++: Activity (μM) 100, p62/actin assay activity (p62; [7]) | Activity (μM) 100, p62/actin assay activity (p62; [6])
0: Activity (μM) 10, single symbol (HeLa cells; [4]) | Activity (μM) 30, single symbol (HeLa cells; [4]) | Activity (μM) 50, single symbol (HeLa cells; [4]) | Activity (μM) 100, single symbol (HeLa cells; [4]) | Activity (μM) 30, p62/actin assay activity (p62; [5]) | Activity (μM) 50, p62/actin assay activity (p62; [5]) | Activity (μM) 100, p62/actin assay activity (p62; [5])
0/0 and ++: Activity (μM) 30, p62/actin assay activity (p62; [6])
0/0* and 0: Activity (μM) 10, starred cell, p62/actin assay activity (p62; Table 8, 10 μM marked * (footnote: data taken at 20 instead of 30 μM), first symbol)
0/0 and +++/+++: Activity (μM) 50, LC3 assay activity (LC3; [2]) | Activity (μM) 50, p62/actin assay activity (p62; [6])

VCNATCHIWH [Compound 15]
0/0: Activity (μM) 10, LC3 assay activity (LC3; [8]) | Activity (μM) 10, p62/actin assay activity (p62; [10])
0: Activity (μM) 10, single symbol (HeLa cells; Table 5)
+: Activity (μM) 30, LC3 assay activity (LC3; [9]) | Activity (μM) 50, LC3 assay activity (LC3; [9]) | Activity (μM) 100, LC3 assay activity (LC3; [9]) | Activity (μM) 30, single symbol (HeLa cells; Table 5)
+++/+++: Activity (μM) 100, LC3 assay activity (LC3; [8]) | Activity (μM) 100, p62/actin assay activity (p62; [10])
+/+: Activity (μM) 30, LC3 assay activity (LC3; [8]) | Activity (μM) 30, p62/actin assay activity (p62; [10])
++/++: Activity (μM) 10, LC3 assay activity (LC3; [9]) | Activity (μM) 50, LC3 assay activity (LC3; [8]) | Activity (μM) 10, p62/actin assay activity (p62; [11]) | Activity (μM) 50, p62/actin assay activity (p62; [10])
+++: Activity (μM) 50, single symbol (HeLa cells; Table 5) | Activity (μM) 100, single symbol (HeLa cells; Table 5) | Activity (μM) 30, p62/actin assay activity (p62; [11]) | Activity (μM) 50, p62/actin assay activity (p62; [11]) | Activity (μM) 100, p62/actin assay activity (p62; [11])

VCNATCHIWH [Compound 16]
+++: Activity (μM) 30, p62/actin assay activity (p62; [11]) | Activity (μM) 50, p62/actin assay activity (p62; [11]) | Activity (μM) 100, p62/actin assay activity (p62; [11])
+: Activity (μM) 10, LC3 assay activity (LC3; [9]) | Activity (μM) 30, LC3 assay activity (LC3; [9]) | Activity (μM) 50, LC3 assay activity (LC3; [9]) | Activity (μM) 100, LC3 assay activity (LC3; [9]) | Activity (μM) 30, single symbol (HeLa cells; Table 5)
++: Activity (μM) 10, LC3 assay activity (LC3; [8]) | Activity (μM) 30, LC3 assay activity (LC3; [8]) | Activity (μM) 50, LC3 assay activity (LC3; [8]) | Activity (μM) 100, LC3 assay activity (LC3; [8]) | Activity (μM) 50, single symbol (HeLa cells; Table 5) | Activity (μM) 100, single symbol (HeLa cells; Table 5) | Activity (μM) 10, p62/actin assay activity (p62; [11])
0: Activity (μM) 10, single symbol (HeLa cells; Table 5) | Activity (μM) 10, p62/actin assay activity (p62; [10]) | Activity (μM) 30, p62/actin assay activity (p62; [10]) | Activity (μM) 50, p62/actin assay activity (p62; [10]) | Activity (μM) 100, p62/actin assay activity (p62; [10])

VCNATCHIWH [Compound 17]
++: Activity (μM) 10, LC3 assay activity (LC3; [9]) | Activity (μM) 30, LC3 assay activity (LC3; [9]) | Activity (μM) 50, LC3 assay activity (LC3; [9]) | Activity (μM) 30, single symbol (HeLa cells; Table 5) | Activity (μM) 10, p62/actin assay activity (p62; [6]) | Activity (μM) 30, p62/actin assay activity (p62; [10]) | Activity (μM) 50, p62/actin assay activity (p62; [10]) | Activity (μM) 100, p62/actin assay activity (p62; [10])
+: Activity (μM) 50, LC3 assay activity (LC3; [8]) | Activity (μM) 100, LC3 assay activity (LC3; [9]) | Activity (μM) 10, p62/actin assay activity (p62; [11])
+++/+++*: Activity (μM) 30, starred cell, LC3 assay activity (LC3; Table 8, second symbol) | Activity (μM) 30, starred cell, p62/actin assay activity (p62; Table 8, first symbol)
+++: Activity (μM) 10, LC3 assay activity (LC3; [2]) | Activity (μM) 50, single symbol (HeLa cells; Table 5) | Activity (μM) 100, single symbol (HeLa cells; Table 5) | Activity (μM) 10, p62/actin assay activity (p62; [10]) | Activity (μM) 30, p62/actin assay activity (p62; [11]) | Activity (μM) 50, p62/actin assay activity (p62; [11]) | Activity (μM) 100, p62/actin assay activity (p62; [11])
0: Activity (μM) 10, LC3 assay activity (LC3; [8]) | Activity (μM) 30, LC3 assay activity (LC3; [8]) | Activity (μM) 100, LC3 assay activity (LC3; [8]) | Activity (μM) 10, single symbol (HeLa cells; Table 5)

VFNATFEIWH [Compound T25]
++: Activity compared to wild-type WT (HeLa cells; Tat-linked linear peptides, summation of p62 degradation assay and LC3 marker assay) | Activity (μM) 5, p62/actin assay activity (p62; 5 μM, Table 8, control compound T25, first symbol) | Activity (μM) 10, p62/actin assay activity (p62; [6])
+++/+++*: Activity (μM) 30, starred cell, LC3 assay activity (LC3; Table 8, second symbol) | Activity (μM) 30, starred cell, p62/actin assay activity (p62; Table 8, first symbol)
+++: Activity (μM) 5, LC3 assay activity (LC3; 5 μM, Table 8, control compound T25, second symbol) | Activity (μM) 10, LC3 assay activity (LC3; [2]) | Activity (μM) 30, single symbol (HeLa cells; Table 7, one symbol only)

YGRKKRRQRRR (Human immunodeficiency virus) [Tat, HIV-1 Tat protein transduction domain, reference compound]
0: Activity (μM) 10, single symbol (HeLa cells; [4]) | Activity (μM) 30, single symbol (HeLa cells; [4]) | Activity (μM) 50, single symbol (HeLa cells; [4]) | Activity (μM) 100, single symbol (HeLa cells; [4]) | Activity (μM) 50, p62/actin assay activity (p62; [5])
0/0: Activity (μM) 10, LC3 assay activity (LC3; [1]) | Activity (μM) 30, LC3 assay activity (LC3; [1]) | Activity (μM) 100, LC3 assay activity (LC3; [1]) | Activity (μM) 10, p62/actin assay activity (p62; [5]) | Activity (μM) 30, p62/actin assay activity (p62; [5]) | Activity (μM) 100, p62/actin assay activity (p62; [5])
+: Activity (μM) 50, LC3 assay activity (LC3; [1])
